Ends that are not written are not given here.
Tests used:
[1] = molecular target: T1, DR4 (DRB1*0401) molecules (Homo sapiens, UniProt P01903+P01911, A100K/A169T/F76Y/I96L/K127E/L162R/M171V/N62H/P40V/Q125Y/R42H/S133A/S149N/S66Y/V115G/V209L/W38E); assay: Peptide HLA-DR binding assay (semi-quantitative competition binding); details: for IC50: Table IIIA, competition with biotinylated marker peptide HA 309 Y→F, pH5.0, 44 hr RT
T1 construct: molecules were purified from the homozygous EBV-transformed human B lymphoblastoid cell lines Huly138IC2 and BM92 using the mAb; endogenous in cells
Description: DR4 (DRB1*0401) and DR4 (DRB1*0404) molecules were purified from the homozygous EBV-transformed human B lymphoblastoid cell lines Huly138IC2 and BM92 using the mAb t243, directed against a monomorphic determinant on the DR-complex (Lampson, L. A and R. Levy (1980), J. Immunol. 125:293 299).
The peptide binding studies were performed using a semi-quantitative competition binding assay (Joosten et al 1994, Int. Immunol. 6, 751). Briefly, purified HLA-DR molecules (30 nM DR4(DRB1*0401) or 15 nM DR4 (DRB1*0404) were incubated at pH5.0 with 50 nM biotinylated marker peptide (HA 309y→F) and a concentration range of competitor peptide in a final volume of 25 μl binding buffer (PBS containing 0.01% […], 0.05% NP-40, 5% DMSO, 1 mM AEBSF, 1 mM N-ethyl maleimide, 8 mM EDTA and 10 μm pepstatin A). After 44 hr of incubation at RT, HLA DR bound marker peptide was separated from free marker peptide using a 96 well vacuum dotblot apparatus (Hybri. dot, BRL) and a nitrocellulose membrane (Hybond ECL, Amersham, UK). The nitrocellulose filters were blocked with 0.5% DNA blocking reagent (Boehringer) in 0.1 M maleic acid, 150 mM NaCl, pH7.5.
After 0.5-1 hr, the filters were washed in PBS, 0.05% Tween 20 (Sigma) and incubated with Strepcavidin-HRPO (Southern Biotechnology) in a 1:10.000 dilution. Biotinylated peptides were detected by enhanced chemiluminescence using a Western Blot ECL kit (Amersham). Exposure of the preflashed films (Hyperfilm-ECL, Amersham) was for 10 min. The spots were analysed by scanning the films and using Image Quant/Excel software for analysis.
The affinity of a given peptide for binding DRB1*0401-encoded molecules was related to competition with the marker peptide. This relative binding affinity was defined as the peptide concentration at which the signal was reduced to 50% (IC50).

[2] = system: PBMC from RA patients carrying the DR4 (DRB1*0401) specificity; assay: Peptide-induced proliferative responses of PBMC from RA patients; format: cell-based, human; details: for Peptide-induced proliferative response of PBMC, RA 272: RA patient 272, 0401, R; for Responses to peptides observed in RA patients only: compared with healthy donors; for Peptide-induced proliferative response of PBMC, RA 286: RA patient 286, 0401, R
Description: This study included 7 DR4(DRB1*0401)-positive patients diagnosed as suffering from RA according to the ARA criteria (Arnett et al., (1988), Arthritis Rheum. 31, 315). Peripheral blood samples were obtained with informed consent. There were five women and two men aged 46-79 years. Their duration of disease ranged from over 10 to over 30 years. Three out of 7 patients had at least 3 swollen joints. […] All patients were on medication: Four patients were treated with prednisone, three patients received anti-rheumatic agents and 4 patients were treated with NSAID's as well.
(§1) In order to identify T-cell epitopes within HC gp-39, 59 peptides of 16 AA in length, overlapping by 10 AA were tested for their capacity to induce a proliferative response in PBMC from RA patients and healthy controls carrying the DR4 (DRB1*0401) specificity (Table 1).
(§2) PBMC obtained from heparinized venous peripheral blood were isolated by standard centrifugation on a Ficoll-Paque gradient. Cells were cultured in four-fold at a concentration of 1,5×10^5 cells/well in medium supplemented with 10% heat-inactivated, autologous plasma, L-glutamine, 2-ME and antibiotics in flatbottomed microtiter plates. Cells were incubated in medium alone or in the presence of phytohaemagglutinin (PHA) (2:5 μg/ml) to assert cell viability, or in the presence of 10 or 100 μg/ml of the HC gp-39-derived peptides. In several cases, sets of 2 or 3 sequential peptides were tested due to limited PBMC numbers of individual donors. Cultures were incubated in a total volume of 210 μl for 7 days at […] in a humidified atmosphere of 5% CO2. Cultures were pulsed during the last 18 hours with 0.25 μCi ^3H-thymidine ([^3H]TdR). Cells were harvested on glassfiber filters and [^3H] TdR incorporation was measured by gas scintillation (Packard Matrix 96 βcounter). Only peptides inducing a proliferative response at both 10 and 100 μg/ml were considered to contain a T-cell epitope. Responses were defined positive if stimulation index values (SI, antigen-specific counts per 5 min (cp5 m)/background cp5 m) exceeded or equaled 2.
(§3) T-cell reactivity to HC gp-39-derived peptide as analyzed by measuring the PBMC proliferative response in DR4 (DRB1*0401)-positive RA patients and healthy donors. Proliferative responses were tested in autologous plasma. In Table IIIA and IIIB the results of 7 experiments are presented showing the responses of RA patients (Table IIIA) and the responses of healthy donors (Table IIIB) to 59 overlapping sequences derived from HC gp-39.

[3] = system: PBMC from RA patients and healthy controls carrying the DR4 (DRB1*0401) specificity; assay: Proliferative responses of blood mononuclear cells, RA patients and healthy donors taken together; format: cell-based, human; details: individual peptides; any donor
Description: as §1, §2, §3

[4] = molecular target: T2, DR4 (DRB1*0401) molecules purified from the homozygous EBV-transformed human B lymphoblastoid cell line … (human, UniProt P01903 26-254); assay: competition binding assay on purified DR4(DRB1*0401)
T2 construct: mature; That form is inferred from purification of the native complex

[5] = 100 and 10 microgram/ml, 7 days, 3H-thymidine incorporation

## LAGAMVWALDLDDFQG [compound 55, LAGAMVWALDLDDFQG]
[1]
  Relative affinity of binding to DR4 (DRB1*0401), in words: relatively high affinity
  IC50: < 1000 nM
[2]; [5]
  Peptide-induced proliferative response of PBMC, RA 272: pos (positive responses to both 100 and 10 microgram/ml of peptide or sets of peptides (SI≧2 were regarded positive))
[2]
  Response of PBMC from RA patient 272 to individual peptides, in words: appeared to respond
  Responses to peptides observed in RA patients only: observed in RA patients only
[3]
  Responses to the individual peptides (PBMC proliferation), identifying T-cell epitopes: observed in one or more donors

## MGIPTFGRSFTLASSE [compound 40, MGIPTFGRSFTLASSE]
[1]
  Relative affinity of binding to DR4 (DRB1*0401), in words: relatively high affinity
  IC50: < 1000 nM
[2]; [5]
  Peptide-induced proliferative response of PBMC, RA 272: pos (positive responses to both 100 and 10 microgram/ml of peptide or sets of peptides (SI≧2 were regarded positive))
  Peptide-induced proliferative response of PBMC, RA 286: pos (positive responses to both 100 and 10 microgram/ml of peptide or sets of peptides (SI≧2 were regarded positive))
[2]
  Response of PBMC from RA patient 272 to individual peptides, in words: appeared to respond
  Responses to peptides observed in RA patients only: observed in RA patients only
[3]
  Responses to the individual peptides (PBMC proliferation), identifying T-cell epitopes: observed in one or more donors

## MLRLGAPASKLVMGIP [compound 38, MLRLGAPASKLVMGIP]
[1]
  Relative affinity of binding to DR4 (DRB1*0401), in words: intermediate relative affinity
  IC50: 10000 to 100000 nM
[2]; RA patient 259, 0401, R, 100 and 10 microgram/ml, 7 days, 3H-thymidine incorporation
  Peptide-induced proliferative response of PBMC, RA 259: pos (positive responses to both 100 and 10 microgram/ml of peptide or sets of peptides (SI≧2 were regarded positive))
[2]; RA patient 262, 0401, R, 100 and 10 microgram/ml, 7 days, 3H-thymidine incorporation
  Peptide-induced proliferative response of PBMC, RA 262: pos (positive responses to both 100 and 10 microgram/ml of peptide or sets of peptides (SI≧2 were regarded positive))
[2]; [5]
  Peptide-induced proliferative response of PBMC, RA 272: pos (positive responses to both 100 and 10 microgram/ml of peptide or sets of peptides (SI≧2 were regarded positive))
  Peptide-induced proliferative response of PBMC, RA 286: pos (positive responses to both 100 and 10 microgram/ml of peptide or sets of peptides (SI≧2 were regarded positive))
[2]
  Response of PBMC from RA patient 272 to individual peptides, in words: appeared to respond
  Responses to peptides observed in RA patients only: observed in RA patients only
[2]; RA patient 276, 0401, R, 100 and 10 microgram/ml, 7 days, 3H-thymidine incorporation
  Peptide-induced proliferative response of PBMC, RA 276: pos (positive responses to both 100 and 10 microgram/ml of peptide or sets of peptides (SI≧2 were regarded positive))
[3]
  Responses to the individual peptides (PBMC proliferation), identifying T-cell epitopes: observed in one or more donors

## SPLFRGQEDASPDRFS [compound 34, SPLFRGQEDASPDRFS]
[1]
  Relative affinity of binding to DR4 (DRB1*0401), in words: relatively high affinity
  IC50: < 1000 nM
[2]; [5]
  Peptide-induced proliferative response of PBMC, RA 272: pos (positive responses to both 100 and 10 microgram/ml of peptide or sets of peptides (SI≧2 were regarded positive))
[2]
  Response of PBMC from RA patient 272 to individual peptides, in words: appeared to respond
  Responses to peptides observed in RA patients only: observed in RA patients only
[3]
  Responses to the individual peptides (PBMC proliferation), identifying T-cell epitopes: observed in one or more donors

## RGATVHRTLGQQVPYA [HC gp-39 peptide 48 (residues 304-319)]
[4]
  binding result: binds

## DIAKISQHLDFISIMT [HC gp-39 peptide 29 (residues 190-205)]
[4]
  binding result: binds

## TIDSSYDIAKISQHLD [HC gp-39 peptide 28 (residues 184-199)]
[4]
  binding result: binds

## PASKLVMGIPTFGRSF [HC gp-39 peptide 39 (residues 250-265)]
[4]
  binding result: binds

## LAGAMVWALDLDDFQG [HC gp-39 peptide 55 (residues 346-361)]
[4]
  binding result: binds

## PPFLRTHGFDGLDLAW [HC gp-39 peptide 18 (residues 124-139)]
[4]
  binding result: binds

## DLAWLYPGRRDKQHFT [HC gp-39 peptide 20 (residues 136-151)]
[4]
  binding result: binds

## MGIPTFGRSFTLASSE [HC gp-39 peptide 40 (residues 256-271)]
[4]
  binding result: binds

B1: HC gp-39 peptide 56 (residues printed as 352-377) (peptide)
peptide: WALDLDDFQGSFCGQD
notes: A 16-mer starting at 352 would end at 367, so this is probably a misprint
[4]
  binding result: binds

## EICDFLRGATVHRTLG [HC gp-39 peptide 47 (residues 298-313)]
[4]
  binding result: binds

## YREGDGSCFPDALDRF [HC gp-39 peptide 3 (residues 34-49)]
[4]
  binding result: binds

## VKSKVQYLKDRQLAGA [HC gp-39 peptide 53 (residues 334-349)]
[4]
  binding result: binds

## GRSFTLASSETGVGAP [HC gp-39 peptide 41 (residues 262-277)]
[4]
  binding result: binds

## GTLAYYEICDFLRGAT [HC gp-39 peptide 46 (residues 292-307)]
[4]
  binding result: binds

## HGFDGLDLAWLYPGRR [HC gp-39 peptide 19 (residues 130-145)]
[4]
  binding result: binds

## MLRLGAPASKLVMGIP [HC gp-39 peptide 38 (residues 244-259)]
[4]
  binding result: binds

## NTQSRRTFIKSVPPFL [HC gp-39 peptide 16 (residues 112-127)]
[4]
  binding result: binds
